From ChEMBL document CHEMBL1201862, “PubChem BioAssay data set” (2004)
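Where inhibition never reached the appropriate level, the endpoint shown equals the highest concentration tested. Otherwise, values were interpolated linearly from a five-concentration, 48-hour dose response in 96-well plates. GI50 is the concentration that inhibits growth by half.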 The source made the active and inactive calls. Rule as the data show it: active = GI50 up to about 1.1 µM and inactive = higher.

How the values were obtained:
Assay in all cases: inhibition of tumour cell growth, NCI panel, 48 h
DMS-273 = tested on: DMS-273
SNB-78 = tested on: SNB-78
DMS-114 = tested on: DMS-114
OVCAR-8 = tested on: OVCAR-8
OVCAR-5 = tested on: OVCAR-5
COLO 205 = tested on: COLO 205
XF498 = tested on: XF498
EKVX = tested on: EKVX
SK-MEL-2 = tested on: SK-MEL-2
KM-20L2 = tested on: KM-20L2
A549 = tested on: A549
NCI-H460 = tested on: NCI-H460
LOX IMVI = tested on: LOX IMVI
DLD-1 = tested on: DLD-1
NCI/ADR-RES = tested on: NCI/ADR-RES
PC-3 = tested on: PC-3

Measured: GI50

C=C1COC(/C=C(\C)CC/C=C(\C)CCl)C1 (stereo unspecified)
inactive: DMS-273 > 100 µM | SNB-78 > 100 µM | DMS-114 > 100 µM | OVCAR-8 > 100 µM | OVCAR-5 > 100 µM | COLO 205 > 100 µM | XF498 > 100 µM | EKVX > 100 µM | SK-MEL-2 > 100 µM | KM-20L2 > 100 µM | A549 > 100 µM | NCI-H460 > 100 µM | LOX IMVI > 100 µM | DLD-1 > 100 µM

COc1ccc(OCC(C)(C)O)cc1
inactive: DMS-273 > 100 µM | SNB-78 > 100 µM | DMS-114 > 100 µM | OVCAR-8 > 100 µM | OVCAR-5 > 100 µM | COLO 205 > 100 µM | XF498 > 100 µM | EKVX > 100 µM | SK-MEL-2 > 100 µM | KM-20L2 > 100 µM | A549 > 100 µM | NCI-H460 > 100 µM | NCI/ADR-RES > 100 µM | LOX IMVI > 100 µM | DLD-1 > 100 µM

C=C1CCC2[C@@H](CCC3[C@]2(C)CCC[C@]3(C)C(=O)OC)C1CCO (stereo partly specified)
inactive: DMS-273 10.5 µM | SNB-78 16.3 µM | DMS-114 5.11 µM | OVCAR-8 18.8 µM | OVCAR-5 14.9 µM | COLO 205 13 µM | XF498 10.2 µM | EKVX 20.5 µM | SK-MEL-2 15.1 µM | KM-20L2 9.66 µM | A549 14.4 µM | NCI-H460 6.49 µM | DLD-1 14.2 µM

C=C1C(=O)O[C@@H]2C[C@@]3(C)[C@H](O)CCC(=C)[C@@H]3C[C@H]12 [ASPERILIN]
inactive: DMS-273 8.38 µM | SNB-78 6.04 µM | DMS-114 14.4 µM | OVCAR-8 7.24 µM | OVCAR-5 6.12 µM | COLO 205 2.72 µM | XF498 2.59 µM | EKVX 16.1 µM | SK-MEL-2 11.6 µM | KM-20L2 7.53 µM | A549 21.5 µM | NCI-H460 6.14 µM | LOX IMVI 5.27 µM | DLD-1 3.69 µM

C[C@]12CC[C@H](OC3CCCCO3)CC1=CC[C@@H]1C2CC[C@]2(C)/C(=N/OCCC#N)CCC12 (stereo partly specified)
inactive: DMS-273 76.7 µM | SNB-78 21.9 µM | DMS-114 4.76 µM | OVCAR-8 34.2 µM | XF498 4.62 µM | EKVX 19.2 µM | SK-MEL-2 56.2 µM | KM-20L2 3.78 µM | A549 26.8 µM | NCI-H460 15.2 µM | LOX IMVI 6.38 µM | DLD-1 > 100 µM

COc1ccc2c(c1)OCCC1=C2SCC2(C)CCN=C12 (stereo unspecified)
inactive: DMS-273 > 100 µM | SNB-78 > 100 µM | DMS-114 92 µM | OVCAR-8 > 100 µM | COLO 205 > 100 µM | XF498 > 100 µM | KM-20L2 36.1 µM | A549 > 100 µM | NCI-H460 > 100 µM | LOX IMVI > 100 µM | DLD-1 > 100 µM

CCCCc1c2cnccc2c(CCCC)c2c1[nH]c1ccccc12
inactive: DMS-273 10.7 µM | SNB-78 25.2 µM | DMS-114 3.99 µM | OVCAR-8 12.9 µM | OVCAR-5 44.9 µM | COLO 205 10.3 µM | XF498 5.19 µM | EKVX 14.6 µM | SK-MEL-2 12.6 µM | KM-20L2 13.6 µM | A549 12.1 µM | NCI-H460 15.7 µM | LOX IMVI 13.7 µM | DLD-1 9.1 µM

C=C1Oc2nc3ccccc3c(=O)n2C1(C)C
inactive: DMS-273 > 100 µM | SNB-78 > 100 µM | DMS-114 > 100 µM | OVCAR-8 > 100 µM | OVCAR-5 > 100 µM | COLO 205 > 100 µM | XF498 > 100 µM | EKVX > 100 µM | SK-MEL-2 > 100 µM | KM-20L2 > 100 µM | A549 > 100 µM | NCI-H460 > 100 µM | LOX IMVI > 100 µM | DLD-1 > 100 µM

CC(C)C(=O)/C=C/c1ccc(Br)cc1
inactive: DMS-273 12.9 µM | SNB-78 27 µM | DMS-114 15.2 µM | OVCAR-8 23.2 µM | OVCAR-5 14.4 µM | COLO 205 23.4 µM | XF498 16.8 µM | EKVX 24 µM | SK-MEL-2 16.1 µM | KM-20L2 9.86 µM | A549 23.8 µM | NCI-H460 14.9 µM | LOX IMVI 17.3 µM | DLD-1 7.31 µM

CSC(=N)N1N=C2/C(=C/c3ccccc3)CCC[C@H]2[C@H]1c1ccccc1
inactive: DMS-273 2.75 µM | SNB-78 16 µM | DMS-114 2.9 µM | OVCAR-8 10.8 µM | OVCAR-5 3.98 µM | COLO 205 1.55 µM | XF498 10.8 µM | EKVX 4.56 µM | SK-MEL-2 4.2 µM | KM-20L2 2.34 µM | A549 4.49 µM | NCI-H460 5.68 µM | LOX IMVI 4.19 µM | DLD-1 3.48 µM

CC(=O)/C=C1\CC(=O)N(C)c2ccccc2N1
inactive: DMS-273 > 100 µM | SNB-78 > 100 µM | DMS-114 29.3 µM | OVCAR-8 > 100 µM | OVCAR-5 > 100 µM | COLO 205 44.7 µM | XF498 > 100 µM | EKVX > 100 µM | SK-MEL-2 > 100 µM | A549 > 100 µM | NCI-H460 > 100 µM | LOX IMVI > 100 µM | DLD-1 2.86 µM

COc1ccc(C2C3C(=O)C=CC(=O)C3[C@@H]2C)cc1OC (stereo partly specified)
inactive: DMS-273 61.4 µM | SNB-78 > 100 µM | DMS-114 56.5 µM | OVCAR-8 > 100 µM | OVCAR-5 > 100 µM | COLO 205 78.5 µM | XF498 56.1 µM | EKVX > 100 µM | SK-MEL-2 > 100 µM | KM-20L2 > 100 µM | A549 > 100 µM | NCI-H460 > 100 µM | LOX IMVI 42.3 µM | DLD-1 > 100 µM

c1ccc2c(c1)nnn2CNc1ccc(N2CCOCC2)cc1
inactive: DMS-273 > 100 µM | SNB-78 > 100 µM | DMS-114 > 100 µM | OVCAR-8 > 100 µM | COLO 205 > 100 µM | XF498 > 100 µM | EKVX > 100 µM | SK-MEL-2 > 100 µM | KM-20L2 > 100 µM | A549 > 100 µM | NCI-H460 > 100 µM | LOX IMVI > 100 µM | DLD-1 > 100 µM

COc1cccc(/C=C2\C(=O)N(C(=O)Cc3ccccc3)N=C2C)c1
inactive: DMS-273 > 100 µM | SNB-78 > 100 µM | DMS-114 > 100 µM | OVCAR-8 > 100 µM | OVCAR-5 > 100 µM | COLO 205 > 100 µM | XF498 > 100 µM | EKVX > 100 µM | SK-MEL-2 > 100 µM | A549 > 100 µM | NCI-H460 > 10 µM | LOX IMVI > 100 µM | DLD-1 > 100 µM

S=P1(N2CCCCC2)Oc2ccc3ccccc3c2-c2c(ccc3ccccc23)O1
inactive: DMS-273 > 80.2 µM | SNB-78 71.4 µM | DMS-114 > 83 µM | OVCAR-8 64.4 µM | OVCAR-5 > 100 µM | COLO 205 > 100 µM | XF498 56.9 µM | EKVX > 53.5 µM | SK-MEL-2 31.6 µM | KM-20L2 > 78.9 µM | A549 > 89.5 µM | NCI-H460 33.6 µM | NCI/ADR-RES > 51.2 µM | LOX IMVI 60.4 µM | DLD-1 91.2 µM

C(=C/c1nc2ccccc2o1)/c1ccc2c(c1)OCO2
inactive: DMS-273 4.56 µM | SNB-78 25.7 µM | DMS-114 16.9 µM | OVCAR-8 29.7 µM | OVCAR-5 > 36.6 µM | COLO 205 40.7 µM | XF498 20.5 µM | EKVX 55.5 µM | SK-MEL-2 8.34 µM | KM-20L2 6.61 µM | A549 18.7 µM | NCI-H460 21.2 µM | NCI/ADR-RES 14.1 µM | LOX IMVI 6.59 µM | DLD-1 5.74 µM

Cc1ccc(N2Cc3c(ccc4ccccc34)OP2(=O)Oc2ccc(Cl)c(C)c2)cc1 (stereo unspecified)
inactive: DMS-273 > 77.8 µM | SNB-78 > 100 µM | DMS-114 > 67.1 µM | OVCAR-8 > 100 µM | OVCAR-5 > 100 µM | COLO 205 > 100 µM | XF498 > 100 µM | EKVX > 100 µM | SK-MEL-2 > 100 µM | KM-20L2 > 100 µM | A549 > 94.6 µM | NCI-H460 67.5 µM | NCI/ADR-RES > 78.7 µM | LOX IMVI > 100 µM | DLD-1 > 41.8 µM

COc1ccc(OC)c(/C=C/NC=O)c1
inactive: DMS-273 > 100 µM | SNB-78 > 100 µM | DMS-114 > 100 µM | OVCAR-8 > 100 µM | OVCAR-5 > 100 µM | COLO 205 > 71.3 µM | XF498 > 100 µM | EKVX > 100 µM | SK-MEL-2 > 100 µM | KM-20L2 > 100 µM | PC-3 > 100 µM | A549 > 100 µM | NCI-H460 > 100 µM | LOX IMVI > 100 µM | DLD-1 > 100 µM

CCC1=CCN(c2ccc(C)cc2)OC1c1ccc(OC)cc1 (stereo unspecified)
inactive: DMS-273 69.8 µM | SNB-78 > 100 µM | DMS-114 > 100 µM | OVCAR-8 > 100 µM | OVCAR-5 > 100 µM | COLO 205 > 100 µM | XF498 46.6 µM | EKVX > 100 µM | SK-MEL-2 32.3 µM | KM-20L2 66.5 µM | A549 71.8 µM | NCI-H460 > 100 µM | LOX IMVI > 100 µM | DLD-1 58.1 µM

Cc1ccccc1N1C(=O)C2C=CC(n3[nH]c(=O)n(Cc4ccccc4)c3=O)CC2C1=O (stereo unspecified)
inactive: DMS-273 > 100 µM | SNB-78 > 100 µM | DMS-114 > 100 µM | OVCAR-8 > 100 µM | OVCAR-5 > 100 µM | COLO 205 > 100 µM | XF498 > 100 µM | EKVX > 100 µM | SK-MEL-2 > 100 µM | KM-20L2 > 100 µM | A549 > 100 µM | NCI-H460 > 100 µM | LOX IMVI > 100 µM | DLD-1 > 100 µM
